Values joined by “and” are separate entries in the source; they are usually repeats but may differ in a detail not shown here. Equal entries are not always repeated.
Legend:
ALP = assay: Dephosphorylated efficacy of P-CyPt towards varying concentrations of ALP (NIR fluorescence); format: biochemical; settings: for Normalized FL intensity: ALP 0 U/L; for normalized signal over time (section 'Supplementary Fig. 2c'), mean of 3: 250 μM
[1] = tested on: orthotopic HepG2/Luc liver tumors; assay: NIR FL imaging of orthotopic HepG2/Luc liver tumors in vivo; set-up: species or system mice
Method: (100 μM, in 200 μL saline). Whole body FL images of mice prior to (pre) and at 1 h, 2 h, 4 h, 8 h post injection of P-CyPt or […] acquired on the IVIS Lumina XR III imaging system, using a 660 nm excitation filter and a 750 ± 50 nm emission filter. Each experiment was conducted in three mice. The FL intensities were quantified by the region of interest (ROI) measurement using Living Image Software (4.5.2, PerkinElmer, MA, U.S.A). […] (500 μM, in 200 μL saline). The PA images of the s.c. HeLa tumors in mice prior to (pre), and at 1, 2, 4 h post injection were captured on the Vevo 2100 LAZR system (FUJIFILM VisualSonics), with excitation at 700 and 750 nm. The PA intensities were quantified by the equipped software.

## CC1(C)C(/C=C/C2=C3Oc4cc(OP(=O)(O)O)c(Cl)cc4C=C3CCC2)=[N+](CCCNC(=O)[C@@H](Cc2ccccc2)NC(=O)[C@@H](Cc2ccccc2)NC(=O)CCC(=O)[O][Pt]([NH2])([NH2])([OH])([Cl])[Cl])c2ccccc21 [P-CyPt]
ALP; 0 min, single samples
  Normalized FL intensity: 0.9783 and 1.039 and 1.048
ALP; 2 min, mean of 3 samples
  Normalized FL intensity: 1.026
ALP; 2 min, single samples
  Normalized FL intensity: 0.9783 and 1.057 and 1.043
ALP; 4 min, mean of 3 samples
  Normalized FL intensity: 1.02
ALP; 4 min, single samples
  Normalized FL intensity: 1.0087 and 1.035 and 1.017
ALP; 6 min, mean of 3 samples
  Normalized FL intensity: 1.039
ALP; 6 min, single samples
  Normalized FL intensity: 1.087 and 1.03 and 1
ALP; 8 min, mean of 3 samples
  Normalized FL intensity: 1.032
ALP; 8 min, single samples
  Normalized FL intensity: 1.087 and 1.013 and 0.9957
ALP; 10 min, mean of 3 samples
  Normalized FL intensity: 1.035
ALP; 10 min, single samples
  Normalized FL intensity: 1.083 and 1.017 and 1.004
ALP; 12 min, mean of 3 samples
  Normalized FL intensity: 1.029
ALP; 12 min, single samples
  Normalized FL intensity: 1.083 and 1.004 and 1
ALP; 14 min, mean of 3 samples
  Normalized FL intensity: 1.014
ALP; 14 min, single samples
  Normalized FL intensity: 1.065 and 0.9957 and 0.9826
ALP; 16 min, mean of 3 samples
  Normalized FL intensity: 1.013
ALP; 16 min, single samples
  Normalized FL intensity: 1.057 and 0.9957 and 0.987
ALP; 18 min, mean of 3 samples
  Normalized FL intensity: 1.0087
ALP; 18 min, single samples
  Normalized FL intensity: 1.048 and 1 and 0.9783
ALP; 20 min, mean of 3 samples
  Normalized FL intensity: 1.016
ALP; 20 min, single samples
  Normalized FL intensity: 1.039 and 0.9913 and 1.017
ALP; 22 min, mean of 3 samples
  Normalized FL intensity: 1.023
ALP; 22 min, single samples
  Normalized FL intensity: 1.104 and 0.9913 and 0.9739
ALP; 24 min, mean of 3 samples
  Normalized FL intensity: 1
ALP; 24 min, single samples
  Normalized FL intensity: 1.039 and 0.9957 and 0.9652
ALP; 26 min, mean of 3 samples
  Normalized FL intensity: 1.0029
ALP; 26 min, single samples
  Normalized FL intensity: 1.035 and 1.004 and 0.9696
ALP; 28 min, mean of 3 samples
  Normalized FL intensity: 1.014
ALP; 28 min, single samples
  Normalized FL intensity: 1.026 and 0.9913
ALP; 30 min, mean of 3 samples
  Normalized FL intensity: 1.00E+00
ALP; 30 min, single samples
  Normalized FL intensity: 1.04E+00 and 9.91E-01 and 0.9783
ALP; time 200 min
  normalized signal over time (section 'Supplementary Fig. 2c'), mean of 3: 0.9941
ALP; time 220 min
  normalized signal over time (section 'Supplementary Fig. 2c'), mean of 3: 0.9946
ALP; time 240 min
  normalized signal over time (section 'Supplementary Fig. 2c'), mean of 3: 0.9956
ALP; time 300 min
  normalized signal over time (section 'Supplementary Fig. 2c'), mean of 3: 0.9969
ALP; time 340 min
  normalized signal over time (section 'Supplementary Fig. 2c'), mean of 3: 0.9978
ALP; time 360 min
  normalized signal over time (section 'Supplementary Fig. 2c'), mean of 3: 0.9982
ALP; time 380 min
  normalized signal over time (section 'Supplementary Fig. 2c'), mean of 3: 0.998
ALP; time 400 min
  normalized signal over time (section 'Supplementary Fig. 2c'), mean of 3: 0.9983
ALP; time 420 min
  normalized signal over time (section 'Supplementary Fig. 2c'), mean of 3: 0.9984
ALP; time 460 min
  normalized signal over time (section 'Supplementary Fig. 2c'), mean of 3: 0.9985
ALP; time 480 min
  normalized signal over time (section 'Supplementary Fig. 2c'), mean of 3: 0.9989
ALP; time 500 min
  normalized signal over time (section 'Supplementary Fig. 2c'), mean of 3: 0.9986
ALP; time 520 min
  normalized signal over time (section 'Supplementary Fig. 2c'), mean of 3: 0.9984
ALP; time 540 min
  normalized signal over time (section 'Supplementary Fig. 2c'), mean of 3: 0.9984
ALP; time 560 min
  normalized signal over time (section 'Supplementary Fig. 2c'), mean of 3: 0.9984
ALP; time 580 min
  normalized signal over time (section 'Supplementary Fig. 2c'), mean of 3: 0.9984
ALP; time 600 min
  normalized signal over time (section 'Supplementary Fig. 2c'), mean of 3: 0.9984
[1]; 2 h
  quantified FL intensity of HepG2/Luc liver tumors (Fig. 5b): 9.80E+08
[1]; 4 h
  quantified FL intensity of HepG2/Luc liver tumors (Fig. 5b): 8.66E+08
[1]; 8 h
  quantified FL intensity of HepG2/Luc liver tumors (Fig. 5b): 3.61E+08
[1]; i.v. 100 μM, 200 μL, 1 h
  quantified FL intensity of HepG2/Luc liver tumors (Fig. 5b): 1.05E+09

Source: paper PMC9925730, “Controlled sequential in situ self-assembly and disassembly of a fluorogenic cisplatin prodrug for cancer theranostics” (Nature Communications, 2023)
